{"source": "patent US10100077B2", "about": "“6-aryl-9-glycosylpurines and use thereof” (UNIVERZITA PALACKEHO V OLOMOUCI, priority 2014, dated 2018)", "key": {"[1]": {"test_system": "skin fibroblasts BJ and keratinocytes HaCaT", "experiment": "MTT in vitro cytotoxicity test for skin cells", "type": "cell-based", "conditions": "Homo sapiens; MTT, 72 hour treatment, BJ and HaCaT, maximal concentration 50 microM", "procedure": "MTT assay is a standard test of toxicity based on photometric measurement of the ability of metabolically active cells to reduce MTT (3-(4,5-dimethylthiazol-2-yl)-2,5-diphenyltetrazolium bromide). Using the assay, the effects of 72 hour treatments with several concentrations of the compounds (sixfold dilution, maximal concentration=50 microM) on viability of skin fibroblasts BJ and keratinocytes HaCaT were evaluated. About 5,000 cells were seeded per well of a 96-well plate 24 hours before the treatment. DMSO vehiculum was used as a negative control. After 72 hour treatment, new medium with MTT (Sigma, M2128) was added to a final concentration of 0.5 mg/ml. After 3 hours, medium was removed and resulting formazan in the cells was dissolved in DMSO. The absorbance was measured at 570 nm (640 nm reference wavelength). The IC50 values were calculated from the dose-response curves. 6-Benzylaminopurine riboside and 6-furfurylaminopurine riboside were used as positive controls they were toxic in the MTT test."}, "[2]": {"test_system": "skin fibroblasts BJ and keratinocytes HaCaT", "experiment": "SRB in vitro toxicity test", "type": "cell-based", "conditions": "Homo sapiens, 72 hour treatment, maximal concentration 50 microM", "procedure": "SRB (sulforhodamine B) assay is a standard toxicity test based on a photometric measurement of the cellular protein content after the staining with sulphorhodamine B. Using the assay, the effects of 72 hour treatments with several concentrations of the compounds (sixfold dilution, maximal concentration=50 microM) on viability of skin fibroblasts BJ and keratinocytes HaCaT were evaluated. About 5,000 cells were seeded per well of a 96-well plate 24 hours before the treatment. DMSO vehiculum was used as a negative non-toxic control. 6-benzylaminopurine riboside a 6-furfurylaminopurin riboside were used as positive toxic controls. After three days the medium was removed and the cells fixed with 10% (wt/vol) trichloroacetic acid. After the extensive washing in distilled water, 0.4% (wt/vol) solution of SRB in acetic acid was added and the fixed cells were stained for 30 minutes. The unbound stain was washed away by distilled water and the bound SRB was solubilized in unbuffered 10 mM Tris base. Absorbance was measured at 564 nm. IC50 values were calculated from dose-response curves."}, "BJ skin fibroblasts": {"test_system": "BJ skin fibroblasts", "experiment": "One-step growth curve", "type": "cell-based", "conditions": "12.5 to 100 μM, counted on 7th and 14th day", "procedure": "The experiments were performed with BJ skin fibroblasts in 24-well tissue culture plates. About 10,000 cells in culture medium comprising DMEM with 10% FBS were seeded into the individual wells. The cells were allowed to attach for 24 hourse. The test compound was added to final concentrations in a range from 12.5 to 100 μM. DMSO vehiculum was also tested. In order to control for variability, two plate columns (A, D) were treated with DMSO vehiculum. The culture medium with the test chemicals or DMSO vehiculum was changed twice a week. Following trypsinization, the numbers of cells in 4 wells for each concentration were counted using Coulter counter on 7th and 14th day."}, "[3]": {"experiment": "Calcein AM cytotoxicity assay, MCF-7", "type": "cell-based", "conditions": "human, MCF-7 breast cancer cells", "excerpt": "(§1) One of the parameters used as the base for cytotoxic analysis is metabolic activity of viable cells, such as microtiter assay, which uses the Calcein AM, is now widely used to quantitate cell proliferation and cytotoxicity. The quantity of reduced Calcein AM corresponds to the number of viable cells in culture. The cell lines of breast cancer (MCF-7), mousse fibroblasts (NIH3T3), human erythromleukemia (K562) were used for routine screening of cytotoxicity of the compounds. The cells were maintened in Nunc/Corning 80 cm^2 plastic bottles and grown in media for cell culture (DMEM containing 5 g/l of glucose, 2 mM of glutamin, 100 U/ml of penicilin, […] of streptomycin, 10% of fetal bovine serum and sodium hydrogencarbonate). Cell suspensions were diluted according to cell types and according to expected final cell density (10^4 of cells per well according to characteristics of cell growth), pipetted 80 μl of cell suspension on 96-well microtiter plates. Innoculates were stabilized by 24 hrs preincubation at 37° C. in CO2. Particular concentrations of tested compounds were added in time zero as 20 μl aliquotto wells of microtiter plates. Usually, the compounds were diluted into six concentrations in four-fold dilution series. In routine testing, the highest well concentration was 166.7 μM, of change dependent on the substance. All drug concentrations were examined in duplicates. The incubation of cells with tested derivatives lasted 72 hrs at 37° C., 100% humidity and in the atmosphere of CO2. At the end of the incubation period, the cells were tested and analysed according to the addition of Calcein AM (Molecular probes) solution and the incubation lasted for next 1 hour. Fluorescence (FD) was measured using Labsystem FIA reader Fluorskan Ascent (Microsystems). The survival of tumor cells (The tumor cell survival-TCS) was counted according to equation: […]=(FDwell with derivative/FDcontrol well)×100%. The value of GI50, that is equal to the concentration of compound at which 50% of tumour cells are terminated. To evaluate the antitumor activity was tested toxicity of new derivatives on panel of cell lines of different histogenetic and species origin (Tab. 7, G150 concentration given in μM). […] Effective derivatives killed tumor cells in concentrations close to 0.1 to 50. None of the newly prepared compounds only reached the value."}, "[4]": {"experiment": "Calcein AM cytotoxicity assay, K562", "type": "cell-based, human", "conditions": "human, K562 erythroleukemia cells", "excerpt": "as §1"}, "[5]": {"experiment": "Calcein AM cytotoxicity assay, NIH3T3", "type": "cell-based, mouse", "conditions": "mouse, NIH3T3 fibroblasts", "excerpt": "as §1"}, "[6]": {"test_system": "Vaccinia virus and Herpes simplex virus", "conditions": "cited from earlier work"}}, "data": [{"smiles": "OC[C@H]1O[C@@H](n2cnc3c(NCc4ccccc4)ncnc32)[C@@H](O)[C@@H]1O", "note": "[6-benzylamino-9-β-D-arabinofuranosylpurine]", "values": [{"measurement": "IC50", "setting": "[1]", "value": "> 50", "unit": "µM"}, {"measurement": "IC50", "setting": "[2]", "value": "> 50", "unit": "µM"}, {"measurement": "influence on cell viability (cell numbers, growth curve)", "setting": "BJ skin fibroblasts", "value": "did not have a negative influence on cell viability"}, {"measurement": "GI50 at 72 h", "setting": "[3]", "value": "> 100", "unit": "µM"}, {"measurement": "GI50 at 72 h", "setting": "[4]", "value": "> 100", "unit": "µM"}, {"measurement": "GI50 at 72 h", "setting": "[5]", "value": "> 100", "unit": "µM"}, {"measurement": "activity in killing Vaccinia virus and Herpes simplex virus", "setting": "[6]", "value": "No effect"}]}]}
